Reference: patent US20110082171A1, “Medicaments and Methods for Inhibition of Scarring” (Renovo Limited, priority 2008, published 2011)
“Also recorded” adds a separate entry of the source. Structures can show the parent of a compound that is named as a salt.

Experiments:
[1] = test system: scarring resulting from full thickness cutaneous incisional wounds; assay: Rat incisional wound scarring model, macroscopic VAS assessment of scars; type: in vivo, male Sprague Dawley rats; conditions: day 70 post-wounding
Experimental: (§1) The GABAA receptor agonist Gaboxadol hydrochloride (Sigma Aldrich, catalogue number T101) was diluted in phosphate buffered saline (PBS) to produce medicaments of the invention having the following concentrations:
(§2) i) 1.76 ng/100 μL (a concentration of 0.1 μM, in which each […] of the medicament provides 10 pmoles of Gaboxadol hydrochloride); ii) 1.76 μg/100 μL (a concentration of 100 μM, in which each 100 μl of the medicament provides 10 nmoles of Gaboxadol hydrochloride); and iii) 8.83 μg/100 μL (a concentration of 500 μM, in which each 100 μl of the medicament provides 50 nmoles of Gaboxadol hydrochloride).
(§3) At day 0, male Sprague Dawley rats (200-250 g) were anaesthetised, shaved and wound sites were marked according to a template in which two wounds, each 1 cm in length, were made at sites 5 cm from the base of the skull and 1 cm from the midline on the back of each rat.
(§4) One hundred microlitres of either one of the medicaments of the invention (comprising either 0.1 μM, 100 μM or 500 μM Gaboxadol hydrochloride in phosphate buffered saline pH 7.2—purchased from GIBCO BRL, Cat. # 20012-019), or placebo (PBS only) was injected intradermally at the wound sites. The intradermal injections caused the formation of a raised bleb, which was then immediately incised to form 1 cm long experimental wounds.
(§5) All treated or diluent control wounds were re-injected again 1 day post-wounding with the appropriate treatment (drug or placebo) via injection of 50 μl to each of the two margins of the 1 cm wound. All wounds were all harvested at day 70 post-wounding.
The wounds were photographed after wounding, prior to re-injection on day 1 and on day of harvest. The scars were assessed using a visual analogue scale (VAS) consisting of a 0-10 cm line representing a scale, from left to right, of 0 (corresponding to normal skin) to 10 (indicative of a bad scar).

[2] = test system: scarring resulting from full thickness cutaneous incisional wounds; assay: Rat incisional wound scarring model, microscopic assessment of scars (Masson's trichrome); type: in vivo, male Sprague Dawley rats; conditions: day 70 post-wounding
Experimental: as §1, §2, §3, §4, §5
For microscopic assessment the scars were excised from the experimental rats (incorporating a small amount of surrounding normal tissue) and fixed in 10% (v/v) buffered formal saline. The fixed tissue was then processed for wax histology, stained using Masson's trichrome, and scarring in the regenerated dermis was assessed.

GABAA receptor = conditions: relative to GABA; cited from earlier work
[3] = biological target: GABAA receptors containing α4β3δ subunits (Homo sapiens, UniProt P28472+P48169); conditions: Brown et al. 2002, cited from earlier work
Chain of GABAA receptors containing α4β3δ subunits (P48169 36-554): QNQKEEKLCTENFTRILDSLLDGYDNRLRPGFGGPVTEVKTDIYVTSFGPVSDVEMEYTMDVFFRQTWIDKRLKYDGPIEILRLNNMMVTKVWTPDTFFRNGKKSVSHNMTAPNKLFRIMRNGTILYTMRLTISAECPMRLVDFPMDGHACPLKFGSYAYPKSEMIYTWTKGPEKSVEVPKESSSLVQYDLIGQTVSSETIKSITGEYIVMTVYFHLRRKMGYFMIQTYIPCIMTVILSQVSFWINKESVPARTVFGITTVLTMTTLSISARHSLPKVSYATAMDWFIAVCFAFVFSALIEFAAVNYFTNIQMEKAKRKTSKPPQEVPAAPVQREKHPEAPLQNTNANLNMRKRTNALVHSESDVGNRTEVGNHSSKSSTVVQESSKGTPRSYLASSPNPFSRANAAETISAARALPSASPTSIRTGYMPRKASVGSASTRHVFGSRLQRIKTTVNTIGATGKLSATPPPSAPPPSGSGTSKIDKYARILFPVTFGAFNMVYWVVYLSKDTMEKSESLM
Chain of GABAA receptors containing α4β3δ subunits (P28472 26-473): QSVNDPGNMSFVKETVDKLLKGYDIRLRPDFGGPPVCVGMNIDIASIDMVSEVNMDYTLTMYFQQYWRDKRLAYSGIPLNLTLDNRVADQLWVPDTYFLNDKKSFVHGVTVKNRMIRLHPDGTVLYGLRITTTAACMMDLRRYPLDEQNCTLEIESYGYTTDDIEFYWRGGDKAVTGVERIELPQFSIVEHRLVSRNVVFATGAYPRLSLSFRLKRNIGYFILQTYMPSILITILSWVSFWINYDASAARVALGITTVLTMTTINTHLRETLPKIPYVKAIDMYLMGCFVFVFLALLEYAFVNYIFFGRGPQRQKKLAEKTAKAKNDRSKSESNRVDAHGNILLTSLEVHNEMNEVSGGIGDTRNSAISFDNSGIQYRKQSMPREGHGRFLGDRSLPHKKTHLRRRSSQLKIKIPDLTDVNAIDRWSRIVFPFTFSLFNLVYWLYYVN
Chain of GABAA receptors containing α4β3δ subunits (O14764 25-452 partner): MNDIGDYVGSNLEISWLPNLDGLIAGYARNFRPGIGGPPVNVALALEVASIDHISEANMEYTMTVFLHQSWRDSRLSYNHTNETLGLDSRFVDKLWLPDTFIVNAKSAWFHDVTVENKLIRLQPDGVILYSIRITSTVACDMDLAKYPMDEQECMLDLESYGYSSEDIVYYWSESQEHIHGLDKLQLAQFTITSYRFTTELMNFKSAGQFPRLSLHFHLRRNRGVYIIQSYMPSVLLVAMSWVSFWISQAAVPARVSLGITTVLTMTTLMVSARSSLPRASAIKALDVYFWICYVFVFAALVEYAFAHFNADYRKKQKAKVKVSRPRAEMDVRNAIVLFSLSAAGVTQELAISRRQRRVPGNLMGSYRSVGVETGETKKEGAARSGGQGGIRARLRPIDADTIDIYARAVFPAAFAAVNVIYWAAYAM

Oc1noc2c1CCNC2 [Gaboxadol hydrochloride]
macroscopic appearance of scars (VAS) versus diluent control ([1]; 0.1 μM solution in PBS, two intradermal injections of 100 μl (1.76 ng per centimetre each)): improved the macroscopic appearance of scars; also recorded: statistically significant inhibition of scarring
macroscopic appearance of scars (VAS) versus diluent control ([1]; 100 μM solution in PBS, two intradermal injections of 100 μl (1.76 μg per centimetre each)): improved the macroscopic appearance of scars; also recorded: trend towards scar reduction
macroscopic appearance of scars (VAS) versus diluent control ([1]; 500 μM solution in PBS, two intradermal injections of 100 μl (8.83 μg per centimetre each)): improved the macroscopic appearance of scars
scarring assessed microscopically ([2]; 0.1 μM solution in PBS): reduction of scarring
scarring assessed microscopically ([2]; 100 μM solution in PBS): reduction of scarring
scarring assessed microscopically ([2]; 500 μM solution in PBS): reduction of scarring

NCc1cc(=O)[nH]o1 [Muscimol, muscimol]
affinity at the GABAA receptor, greater than GABA (GABAA receptor): 10 fold

Oc1noc2c1CCNC2 [Gaboxadol, 4,5,6,7-tetrahydroisoxazolo[5,4-c]pyridine-3-ol]
affinity for GABAA receptors compared with GABA (in words) (GABAA receptor): affinity higher than that of GABA itself
EC50 [3]: 6 µM
maximum response (% of that of GABA) ([3]; relative to GABA): 163%
